Literature values, collected in US20120034285A1, “Mosquito Net with Dinotefuran and PBO for Killing Mosquitoes, Especially Mosquitoes with Pyrethroid Resistance” (priority 2009, published 2012).

Key:
Anopheles gambiae = conditions: in vivo
Aedes aegypti = conditions: in vivo
Culex quinquefasciatus = conditions: in vivo
[1] = system: mosquito strain VKPR (also termed VKPER) of the An. gambiae species; conditions: strain with mutation for knockdown-resistance against pyrethroids
mosquitoes = conditions: in contrast to pyrethroids; also mentioned in JP 10 139604
cockroaches = conditions: PBO added as an oxidase inhibitor; Dinotefuran injected into the stomach

Compound: CN/C(=N/CC1CCOC1)N[N+](=O)[O-] (stereo not drawn) [Dinotefuran]
- lethal effect (Anopheles gambiae): lethal effect
- lethal effect (Aedes aegypti): lethal effect
- lethal effect (Culex quinquefasciatus): lethal effect
- lethal effect [1]: lethal effect
- mosquito repellent effect (mosquitoes): does not have a mosquito repellent effect
- toxicity on cockroaches (cockroaches): increased toxicity
